# According to patent publication US8318769B2, “Substituted sulfonamide compounds” (Gruenethal GmbH, priority 2008, dated 2012):
# How the values were obtained:
# [1] = molecular target: T1, human bradykinin 1 receptor (B1R) (Homo sapiens, UniProt P46663); test: FLIPR Ca2+ assay, B1R antagonism, human; type: cell-based; settings: 10 μM test substance, CHO K1 cells with human B1R gene (hB1R cells), Lys-Des-Arg9-bradykinin at EC80, % inhibition compared with the maximum achievable inhibition; for inhibition at 10 µM: read-out: B1R antagonism, human [10 μM] % inhibition
# T1 construct: expressed in transfected cells
# T1 sequence (P46663 1-353): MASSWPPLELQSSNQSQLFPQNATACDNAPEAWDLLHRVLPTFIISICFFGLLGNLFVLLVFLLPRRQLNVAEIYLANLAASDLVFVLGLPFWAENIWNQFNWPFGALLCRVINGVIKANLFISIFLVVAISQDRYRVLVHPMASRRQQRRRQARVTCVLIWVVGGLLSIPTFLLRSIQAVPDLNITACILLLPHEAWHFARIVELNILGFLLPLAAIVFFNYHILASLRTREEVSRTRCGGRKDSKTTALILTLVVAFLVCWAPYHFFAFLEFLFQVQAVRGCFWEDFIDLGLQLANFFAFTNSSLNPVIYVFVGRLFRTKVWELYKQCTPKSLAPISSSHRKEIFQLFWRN
# Summary of the method: (§1)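 Antagonism is given as % of maximum achievable suppression of agonist-evoked Ca2+ influx, measured by Fluo-4 peak fluorescence in FLIPR. Stable hB1R or rB1R CHO K1 lines received 10 μM compound for 10-20 min before EC80 Lys-Des-Arg9-bradykinin (human) or Des-Arg9-bradykinin (rat).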
# [2] = molecular target: T2, bradykinin 1 receptor (B1R) of the rat (Rattus norvegicus, UniProt P97583); test: FLIPR Ca2+ assay, B1R antagonism, rat; type: cell-based; settings: CHO K1 cells with rat B1R gene (rB1R cells), Des-Arg9-bradykinin at EC80, % inhibition compared with the maximum achievable inhibition; for inhibition at 10 µM: CHO-K1, 10 μM test substance, read-out: B1R antagonism, rat [10 μM] % inhibition; for B1R antagonism, rat [10 μM] % inhibition: 10 μM test substance
# T2 construct: expressed in transfected cells
# T2 sequence (P97583 1-337): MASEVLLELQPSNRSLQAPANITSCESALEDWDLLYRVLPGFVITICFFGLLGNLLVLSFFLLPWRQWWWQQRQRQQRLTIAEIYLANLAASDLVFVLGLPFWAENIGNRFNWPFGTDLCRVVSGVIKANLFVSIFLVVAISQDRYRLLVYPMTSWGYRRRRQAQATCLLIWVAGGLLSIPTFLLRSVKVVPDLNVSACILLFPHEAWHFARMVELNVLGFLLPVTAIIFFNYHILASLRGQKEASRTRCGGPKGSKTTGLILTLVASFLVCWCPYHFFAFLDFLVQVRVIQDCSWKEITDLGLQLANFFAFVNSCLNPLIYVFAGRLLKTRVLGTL
# Summary of the method: as §1
inhibition at 10 µM [1] [%],inhibition at 10 µM [2] [%],"B1R antagonism, human [10 μM] % inhibition [1] [%]","B1R antagonism, rat [10 μM] % inhibition ([2]; 10 µM) [%]","B1R antagonism, rat [10 μM] % inhibition [2] [%]",Compound
100,97,–,–,–,"COc1cc(C)c(S(=O)(=O)N(C)CCOCC(=O)N2CCC(OCCN3CCCC3)(c3cccc(F)c3)CC2)c(C)c1 [Example 81, N-[2-[2-[4-(3-fluorophenyl)-4-(2-pyrrolidin-1-yl-ethoxy)-piperidin-1-yl]-2-oxo-ethoxy]-ethyl]-4-methoxy-N,2,6-trimethyl-benzenesulfonic acid amide]"
85,61,–,–,–,"Cc1cc(S(=O)(=O)N2CCCCC2CCC(=O)N2CCC(OCCN3CCN(C)CC3)(c3cccnc3)CC2)c(C)cc1Cl (centres unmarked) [Example 31, 3-(1-(4-chloro-2,5-dimethylphenylsulfonyl)piperidin-2-yl)-1-(4-(2-(4-methylpiperazin-1-yl)ethoxy)-4-(pyridin-3-yl)piperidin-1-yl)propan-1-one]"
98,97,–,–,–,"COc1cc(C)c(S(=O)(=O)N2c3ccccc3OCC2COCC(=O)N2CCC(OCCN3CCCC3)(c3cccc(F)c3)CC2)c(C)c1 (centres unmarked) [Example 107, 1-[4-(3-fluorophenyl)-4-(2-pyrrolidin-1-yl-ethoxy)-piperidin-1-yl]-2-[[4-[(4-methoxy-2,6-dimethyl-phenyl)sulfonyl]-3,4-dihydro-2H-[1,4]benzoxazin-3-yl]-methoxy]-ethanone]"
104,102,–,–,–,"COc1cc(C)c(S(=O)(=O)N2CCCCC2COCC(=O)N2CCC(OCCN3CCCC3)(c3cccnc3)CC2)c(C)c1 (centres unmarked) [Example 20, 2-((1-(4-methoxy-2,6-dimethylphenylsulfonyl)piperidin-2-yl)methoxy)-1-(4-(pyridin-3-yl)-4-(2-(pyrrolidin-1-yl)ethoxy)piperidin-1-yl)ethanone]"
50,98,–,–,–,"CN1CCN(CCCOC2(c3cccnc3)CCN(C(=O)CC(NS(=O)(=O)c3ccc4ccccc4c3)c3ccccc3)CC2)CC1 (centres unmarked) [Example 39, N-(3-(4-(3-(4-methylpiperazin-1-yl)propoxy)-4-(pyridin-3-yl)piperidin-1-yl)-3-oxo-1-phenylpropyl)naphthalene-2-sulfonamide]"
100,81,–,–,–,"O=C(COCC1COc2ccccc2N1S(=O)(=O)c1ccccc1C(F)(F)F)N1CCC(OCCN2CCCC2)(c2ccncc2)CC1 (centres unmarked) [Example 112, 1-[4-pyridin-4-yl-4-(2-pyrrolidin-1-yl-ethoxy)-piperidin-1-yl]-2-[[4-[[2-(trifluoromethyl)-phenyl]sulfonyl]-3,4-dihydro-2H-[1,4]benzoxazin-3-yl]-methoxy]-ethanone]"
100,99,–,–,–,"COc1cc(C)c(S(=O)(=O)N2CCCCC2COCCC(=O)N2CCC(OCCN3CCCC3)(c3cccc(F)c3)CC2)c(C)c1 (centres unmarked) [Example 121, 1-[4-(3-fluorophenyl)-4-(2-pyrrolidin-1-yl-ethoxy)-piperidin-1-yl]-3-[[1-[(4-methoxy-2,6-dimethyl-phenyl)sulfonyl]-piperidin-2-yl]-methoxy]-propan-1-one]"
99,100,–,–,–,"COc1cc(C)c(S(=O)(=O)N(C)CCOCC(=O)N2CCC(OCCCN3CCN(C)CC3)(c3cccnc3)CC2)c(C)c1 [Example 34, 4-methoxy-N,2,6-trimethyl-N-(2-(2-(4-(3-(4-methylpiperazin-1-yl)propoxy)-4-(pyridin-3-yl)piperidin-1-yl)-2-oxoethoxy)ethyl)benzenesulfonamide]"

# Continued, compound first:
Compound,inhibition at 10 µM [1] [%],inhibition at 10 µM [2] [%],"B1R antagonism, human [10 μM] % inhibition [1] [%]","B1R antagonism, rat [10 μM] % inhibition ([2]; 10 µM) [%]","B1R antagonism, rat [10 μM] % inhibition [2] [%]"
"O=C(CCCC1CCCCN1S(=O)(=O)c1ccc2ccccc2c1)N1CCC(OCCN2CCCC2)(c2cccnc2)CC1 (centres unmarked) [Example 95, 4-[1-(naphthalen-2-ylsulfonyl)-piperidin-2-yl]-1-[4-pyridin-3-yl-4-(2-pyrrolidin-1-yl-ethoxy)-piperidin-1-yl]-butan-1-one]",95,101,–,–,–
"COc1cc(C)c(S(=O)(=O)N2CCCCC2COCCC(=O)N2CCC(OCCN3CCCC3)(c3cccc(F)c3)CC2)c(C)c1 (centres unmarked) [Example 122, 1-[4-(3-fluorophenyl)-4-(2-pyrrolidin-1-yl-ethoxy)-piperidin-1-yl]-3-[[1-[(4-methoxy-2,6-dimethyl-phenyl)sulfonyl]-piperidin-2-yl]-methoxy]-propan-1-one]",–,–,100,100,–
"COc1cc(C)c(S(=O)(=O)N(C)CCOCC(=O)N2CCC(OCCN3CCCC3)(c3ccncc3)CC2)c(C)c1C [Example 115, 4-methoxy-N,2,3,6-tetramethyl-N-[2-[2-oxo-2-[4-pyridin-4-yl-4-(2-pyrrolidin-1-yl-ethoxy)-piperidin-1-yl]-ethoxy]-ethyl]-benzenesulfonic acid amide]",100,102,–,–,–
"COc1cc(C)c(S(=O)(=O)N2CCCC[C@H]2COCC(=O)N2CCC(OCCN3CCCC3)(c3cccnc3)C2)c(C)c1 (stereo partly drawn) [Example 50, 2-(((S)-1-(4-methoxy-2,6-dimethylphenylsulfonyl)piperidin-2-yl)methoxy)-1-(3-(pyridin-3-yl)-3-(2-(pyrrolidin-1-yl)ethoxy)pyrrolidin-1-yl)ethanone]",100,104,–,–,–
"COc1cc(C)c(S(=O)(=O)N(C)CCOCC(=O)N2CCC(OCCN3CCCCC3)(c3cccnc3)CC2)c(C)c1 [Example 15, 4-methoxy-N,2,6-trimethyl-N-(2-(2-oxo-2-(4-(2-(piperidin-1-yl)ethoxy)-4-(pyridin-3-yl)piperidin-1-yl)ethoxy)ethyl)-benzenesulfonamide]",104,102,–,–,–
"Cc1cccc(Cl)c1S(=O)(=O)N(CCOCC(=O)N1CCC(OCCN2CCCC2)(c2cccc(F)c2)CC1)C1CC1 [Example 62, 2-chloro-N-cyclopropyl-N-[2-[2-[4-(3-fluorophenyl)-4-(2-pyrrolidin-1-yl-ethoxy)-piperidin-1-yl]-2-oxo-ethoxy]-ethyl]-6-methyl-benzenesulfonic acid amide]",100,102,–,–,–
"CN1CCN(CCOC2(c3cccnc3)CCN(C(=O)CC3CCCCN3S(=O)(=O)c3cccc(C(F)(F)F)c3)CC2)CC1 (centres unmarked) [Example 30, 1-(4-(2-(4-methylpiperazin-1-yl)ethoxy)-4-(pyridin-3-yl)piperidin-1-yl)-2-(1-(3-(trifluoromethyl)phenylsulfonyl)piperidin-2-yl)ethanone]",31,18,–,–,–
"3-[[1-[(4-methoxy-2,6-dimethyl-phenyl)sulfonyl]-piperidin-2-yl]-methoxy]-1-[4-pyridin-3-yl-4-(2-pyrrolidin-1-yl-ethoxy)-piperidin-1-yl]-propan-1-one [Example 120]",–,–,100,–,103
"COc1cc(C)c(S(=O)(=O)N(CCOCC(=O)N2CCC(OCCN3CCCC3)(c3cccnc3)CC2)C(c2ccccc2)c2ccccc2)c(C)c1 [Example 6, N-benzhydryl-4-methoxy-2,6-dimethyl-N-(2-(2-oxo-2-(4-(pyridin-3-yl)-4-(2-(pyrrolidin-1-yl)ethoxy)piperidin-1-yl)ethoxy)ethyl)benzenesulfonamide]",98,100,–,–,–
"O=C(COCC1CCc2ccccc2N1S(=O)(=O)c1ccc(Cl)c(Cl)c1)N1CCC(OCCN2CCCCC2)(c2cccnc2)CC1 (centres unmarked) [Example 16, 2-((1-(3,4-dichlorophenylsulfonyl)-1,2,3,4-tetrahydroquinolin-2-yl)methoxy)-1-(4-(2-(piperidin-1-yl)ethoxy)-4-(pyridin-3-yl)piperidin-1-yl)ethanone]",103,87,–,–,–
"COc1cc(C)c(S(=O)(=O)N(CCOCC(=O)N2CCC(OCC[N+]3(C)CCCC3)(c3cccnc3)CC2)C2CC2)c(C)c1 [Example 58, N-cyclopropyl-4-methoxy-2,6-dimethyl-N-[2-[2-[4-[2-(1-methyl-pyrrolidin-1-ium-1-yl)-ethoxy]-4-pyridin-3-yl-piperidin-1-yl]-2-oxo-ethoxy]-ethyl]-benzenesulfonic acid amide iodide]",100,104,–,–,–
